Data taken from US20080118576A1, “PREDICTION OF AN AGENT'S OR AGENTS' ACTIVITY ACROSS DIFFERENT CELLS AND TISSUE TYPES” (priority 2006, published 2008).

Experiments:
[1] = system: 40 human urothelial (bladder) cancer cell lines; assay: Alamar Blue growth inhibition of 40 bladder cancer cell lines, single drugs, 72 hours; type: cell-based; details: for criterion dose (CR): minimum dose at which at least 25% of cell lines showed growth inhibition >50%; for number of resistant cell lines / number of sensitive cell lines: of 40 bladder cancer cell lines; for number of sensitive cell lines: log10(GI50) ≤ CR
Description: The human bladder cancer cell lines and the respective growth conditions used in this study have been previously described (6, 7). Cisplatin was purchased from Sigma (St. Louis, Mo.), dissolved in Dulbecco's phosphate-buffered saline, and aliquoted in 1 mg/ml stocks. Paclitaxel was purchased from Sigma (St. Louis, Mo.), dissolved in Dimethyl Sulphoxide (DMSO), and aliquoted in 1 mM stocks. Gemcitabine was purchased from the University of Virginia Medical Center Pharmacy, dissolved in PBS, and aliquoted in 0.1 M stocks. Cell lines were maintained in appropriate media, in a humidified atmosphere containing 5% CO2 in air, except CRL2169 (SW780) which requires no CO2 for its growth. Cell lines were subcultured in an aqueous solution of 0.05% trypsin (Difco, 1:250) and 0.016% EDTA. Each cell line was used within 10 passages from its archival passage number in order to minimize any long term cell culture effects. Gene expression analysis of bladder cell lines was carried out as previously described using the HG-U133A GeneChip® array (Affymetrix®, Santa Clara, Calif., USA) (6, 7). The image file was analyzed with RMA, to obtain the expression intensity values of the microarray data (8).
Cell lines were seeded in 96-well cell culture plates (Costar) at a density of 1000 cells/well. 24 hours later, cells were exposed to the drugs diluted in RPMI-1640 medium, containing 10% FBS, concentration that is required by more than 75% of cell lines for their normal growth, at a total volume of 200 μL. Each drug dose was plated in triplicate, and the experiment was repeated four to seven times. The doses for Cisplatin were 200, 400, 800, 1600, 3200, and 6400 ng/ml; for Paclitaxel 0.0001, 0.001, 0.002, 0.005, 0.01, and 0.1 μM; for Gemcitabine 0.001, 0.01, 0.1, 1, 10, 100 μM.
From the dose-response data, log 10(GI50) values (log base 10 of concentration required to inhibit cell growth by 50% in comparison with untreated control) were estimated for all the cell lines by deriving log(dose) concentration curves on cell count percents as described below. To estimate the GI50 values reliably, we computed Euclidean distances among all replicated experiments, and excluded outlying experiments if they were in the top 20% among all measured distances. This percent was determined heuristically based on the general observations in experimental quality control. […] Subsequently, the data were fitted to a sigmoidal function such as the following nonlinear regression model for estimating each cell line's dose response curve:
Percent=1−1/(1+exp(−(log 10(dose)−β)/α),
where α and β determine the shape of a fitted line.
This sigmoidal regression function was used to capture the natural shapes of drug dose responses. Thus, the estimated β is the predicted log 10(GI50) value, the expected log concentration achieving the cell count reduction of 50%. Similarly, log 10(GI30), and log 10(GI70) values, i.e. the concentrations required to inhibit cell growth by 30%, and 70% in comparison with untreated control, were also calculated.
Cell line drug sensitivity was classified using the GI estimates and application of a criterion dose (CR) concept. […] Using these CR concentrations, each cell line was defined as sensitive if log 10(GI50)≦CR; strongly sensitive if […], or resistant if log 10(GI70)>CR, and intermediate if log 10(GI50)>CR and log 10(GI70)<CR.
To approach the development of molecular models of chemotherapeutic sensitivity in human bladder cancer, we focused on a well-defined series of 40 urothelial cell lines for which we could measure sensitivity to relevant chemotherapeutic agents in vitro and correlate these responses with global measurements of gene expression.

[2] = system: BLA-40 human bladder cancer cell lines; assay: In vitro growth inhibition (GI50) in BLA-40 cells, 48 hours, as for NCI-60; type: cell-based; details: for potency in BLA-40 compared with NCI-60 tissue panels: BLA-40 vs nine tissue-specific panels of NCI-60
Source text: Sensitivity of human bladder cancer cells to cisplatin, paclitaxel and NSC 637993. To test the predictive models, we performed in vitro drug response experiments, and then determined GI50 values for each bladder cell line for cisplatin, paclitaxel, and compound NSC 637993 (Supplementary Materials and Methods). Sensitivity to the agents was generated by a dose response experiments carried out on the BLA-40 cells as described for the NCI-60. The final concentrations of cisplatin used were 200, 400, 800, 1600, 3200, and 6400 ng/ml; those of Paclitaxel and NSC 637993 were 0.1, 1, 2, 5, 10, and 100 nM. In each case, the cells were plated on Day 0, exposed to drug for 48 hours) at 37° C., and then assayed. Each experiment was repeated three to five independent times, and the results were expressed as a fraction of the difference between initial cell count and untreated control. Log 10(GI50) values were then estimated from the resulting dose-response curves. Bladder cell lines were defined as sensitive or resistant as described above for the NCI-60 panel. […]
In the first application of the COXEN algorithm, for example, Cell Sets 1 and 2 were the NCI-60 and BLA-40 cell panels, respectively; the Step 1 drug activities were those assessed by DTP in the NCI-60 using a 48-hour sulforhodamine B assay; the “molecular characteristic” in Steps 2 and 4 was transcript expression level, as assessed using Affymetrix HG-U133A microarrays; the algorithm in Step 3 was “Significance Analysis of Microarrays (SAM)” or two-sample t-test; Step 5 was a novel “co-expression extrapolation” algorithm; Step 6 was another novel algorithm, “Misclassification-Penalized Posterior” (MiPP), which we recently introduced for selection of the best mathematical “models” for the prediction; and applying the prediction models obtained in Step 6, independent testing of the predictions on BLA-40 cells was performed, mimicking the way the assay for the NCI-60 by DTP.

breast cancer = details: cited from earlier work
bladder cancer = details: cited from earlier work
breast cancer patients = details: 24 patients, four cycles of neoadjuvant docetaxel, original study; cited from earlier work
[3] = system: estrogen receptor-positive breast cancer patients; assay: TAM-60 breast cancer clinical trial, time to recurrence classification; type: in vivo, human; details: of 60 patients
Description: In the tamoxifen clinical trial (TAM-60), 60 postmenopausal breast cancer patients with estrogen receptor-positive tumors were treated and followed for up to 180 months. Genome-wide expression profiling was performed on the primary tumors using a customized cDNA microarray platform.

| SMILES | criterion dose (CR) [1] | number of resistant cell lines [1] | number of sensitive cell lines [1] | further results |
| --- | --- | --- | --- | --- |
| Nc1ccn([C@@H]2O[C@H](CO)[C@@H](O)C2(F)F)c(=O)n1 [Gemcitabine] | 0.1 µM | 11 | 8 | – |
| CCN(CC)CCNc1ccc2nc(C)n3c4ccc(OC)cc4c(=O)c1c23 [NSC 637993] | – | – | – | proportion of BLA-40 cell types with GI50 less than 10-6M ([2]; BLA-40 panel): > 60%; potency in BLA-40 compared with NCI-60 tissue panels [2]: more effective at a lower dose (1×10^−6M) in bladder cancer; potency in BLA-40 compared with NCI-60 tissue panels ([2]; listed as NSC637993): more potent overall in the BLA-40 bladder cancers than in any of the organ-of-origin types included in the NCI-60 |
| CC(=O)O[C@H]1C(=O)[C@@]2(C)[C@H]([C@H](OC(=O)c3ccccc3)[C@]3(O)C[C@H](OC(=O)[C@H](O)[C@@H](NC(=O)c4ccccc4)c4ccccc4)C(C)=C1C3(C)C)[C@]1(OC(C)=O)CO[C@@H]1C[C@@H]2O [Paclitaxel] | 0.005 µM | 11 | 17 | – |
| N.N.[Cl][Pt][Cl] [cisplatin] | 400 ng/mL | 11 | 16 | – |
| O=c1[nH]cc(F)c(=O)[nH]1 [compound 19893] | – | – | – | Clinical response rate (breast cancer): 44.4; Clinical response (bladder cancer): 23.1 |
| CC(=O)O[C@@]12CO[C@@H]1C[C@H](O)[C@@]1(C)C(=O)[C@H](O)C3=C(C)[C@@H](OC(=O)[C@H](O)[C@@H](NC(=O)OC(C)(C)C)c4ccccc4)C[C@@](O)([C@@H](OC(=O)c4ccccc4)[C@H]21)C3(C)C [docetaxel] | – | – | – | number of non-responder patients (breast cancer patients): 13; number of responder patients (breast cancer patients): 11 |
| CC/C(=C(\c1ccccc1)c1ccc(OCCN(C)C)cc1)c1ccccc1 [tamoxifen] | – | – | – | number of non-responders (recurrence <50 months) [3]: 16; number of responders (long-term survival >130 months) [3]: 11 |
